Results as given in US20120088262A1, “CYANINE COMPOUNDS, CONJUGATES AND METHOD OF USE” (Millipore Corporation, priority 2010, published 2012).

Legend:
[1] = Fluorescence excitation and emission spectrum of the dyes; assay type: physicochemical; settings: for Em / emission max / Ex Peak / excitation max: solvent not given
live and dead cells = test: Cell viability detection with amine reactive viability dye by flow cytometry; assay type: cell-based; settings: mix of live and dead cells
Experimental: Pipet 100 uL of prepared cells in biological buffer or media in a reaction vessel such as a tube or microwell plate. Add 100 uL of working solution to 100 uL cell sample; mix well and incubate at the room temperature for 15 minutes. Remove supernatant without disturbing the pellet. Wash the cells with PBS with bovine serum albumin (BSA) (range 0.2-10%) per well; centrifuge plate at 1000 rpm for 5 minutes; remove the supernatant by aspiration without disturbing the cell pellet.
Cells were killed by heat or treated with diamide or staurosporine inducers.

painted cells = test: Cell painting applications; assay type: cell-based

Row | SMILES | Em ([1]; in Methanol) [nm] | Ex ([1]; in Methanol) [nm] | Em / emission max [1] [nm] | Ex Peak / excitation max [1] [nm] | absorption max ([1]; in Methanol) [nm] | separation of live and dead cells (live and dead cells) | utility for labeling and painting cells (painted cells) | retention of dye in painted cells (painted cells; 3 h time period) | localization of dye (painted cells; microscopy)
1 | O=C(O)Cc1ccc(CN2/C(=C/C=C/c3oc4ccccc4[n+]3Cc3ccc(CC(=O)O)cc3)Oc3ccccc32)cc1.[Br-] [Compound No. 9] | 507 | 489 | 507 | 489 | – | – | – | – | –
2 | O=C(Cc1ccc(CN2/C(=C/C=C/c3oc4ccccc4[n+]3Cc3ccc(CC(=O)ON4C(=O)CCC4=O)cc3)Oc3ccccc32)cc1)ON1C(=O)CCC1=O.[Br-] [Compound No. 10] | 508 | 490 | 507 | 489 | – | – | – | – | –
3 | CC(C(=O)O)c1ccc(C[N+]2=C(/C=C/C=C3\Oc4ccccc4N3Cc3ccc(CC(=O)O)cc3)C(C)(C)c3cc(S(=O)(=O)[O-])ccc32)cc1 (stereo not drawn) [Compound No. 11] | 541 | 510 | 542 | 510 | – | – | – | – | –
4 | CC(C(=O)ON1C(=O)CCC1=O)c1ccc(C[N+]2=C(/C=C/C=C3\Oc4ccccc4N3Cc3ccc(CC(=O)ON4C(=O)CCC4=O)cc3)C(C)(C)c3cc(S(=O)(=O)[O-])ccc32)cc1 (stereo not drawn) [Compound No. 12] | 541 | 510 | 541 | 510 | – | excellent separation of live and dead cells | – | – | –

More lines, main results first:

Row | Em ([1]; in Methanol) [nm] | Ex ([1]; in Methanol) [nm] | Em / emission max [1] [nm] | Ex Peak / excitation max [1] [nm] | absorption max ([1]; in Methanol) [nm] | SMILES | separation of live and dead cells (live and dead cells) | utility for labeling and painting cells (painted cells) | retention of dye in painted cells (painted cells; 3 h time period) | localization of dye (painted cells; microscopy)
5 | 642 | 609 | 642 | 609 | 609 | CC1(C)C(/C=C/C=C/C=C2\Oc3ccccc3N2Cc2ccc(CC(=O)ON3C(=O)CCC3=O)cc2)=[N+](Cc2ccc(CC(=O)ON3C(=O)CCC3=O)cc2)c2ccc(S(=O)(=O)[O-])cc21 [Compound No. 14] | can clearly distinguish live (low fluorescence) and dead cells (high fluorescence) | – | – | –
6 | 679 | 650 | 642 | 609 | – | CC1(C)C(/C=C/C=C/C=C2/N(Cc3ccc(CC(=O)O)cc3)c3ccccc3C2(C)C)=[N+](Cc2ccc(CC(=O)O)cc2)c2ccccc21.[Br-] [Compound No. 16] | – | – | – | –
7 | 574 | 551 | 574 | 551 | – | Cc1ccc(CN2/C(=C/C=C/C3=[N+](Cc4ccc(C)cc4)c4ccccc4C3(C)C)C(C)(C)c3ccccc32)cc1.[Br-] [Compound No. 18] | – | good utility for painting cells | – | –
8 | 674 | 650 | 674 | 650 | – | Cc1ccc(CN2/C(=C/C=C/C=C/C3=[N+](Cc4ccc(C)cc4)c4ccccc4C3(C)C)C(C)(C)c3ccccc32)cc1.[Br-] [Compound No. 19] | – | good utility for labeling and painting cells | good retention of dye | localized intracellularly
